Measurements from doi:10.1101/757047v1 (biorxiv, 2019).
Like-named read-outs stand apart in the source and are kept apart here.

Experiments:
[1] = molecular target: T1, full length GAK protein N-terminally fused with NanoLuc luciferase (Homo sapiens, UniProt O14976); test: cell-based; design: species or system HEK293T
T1 sequence (O14976 2-1311): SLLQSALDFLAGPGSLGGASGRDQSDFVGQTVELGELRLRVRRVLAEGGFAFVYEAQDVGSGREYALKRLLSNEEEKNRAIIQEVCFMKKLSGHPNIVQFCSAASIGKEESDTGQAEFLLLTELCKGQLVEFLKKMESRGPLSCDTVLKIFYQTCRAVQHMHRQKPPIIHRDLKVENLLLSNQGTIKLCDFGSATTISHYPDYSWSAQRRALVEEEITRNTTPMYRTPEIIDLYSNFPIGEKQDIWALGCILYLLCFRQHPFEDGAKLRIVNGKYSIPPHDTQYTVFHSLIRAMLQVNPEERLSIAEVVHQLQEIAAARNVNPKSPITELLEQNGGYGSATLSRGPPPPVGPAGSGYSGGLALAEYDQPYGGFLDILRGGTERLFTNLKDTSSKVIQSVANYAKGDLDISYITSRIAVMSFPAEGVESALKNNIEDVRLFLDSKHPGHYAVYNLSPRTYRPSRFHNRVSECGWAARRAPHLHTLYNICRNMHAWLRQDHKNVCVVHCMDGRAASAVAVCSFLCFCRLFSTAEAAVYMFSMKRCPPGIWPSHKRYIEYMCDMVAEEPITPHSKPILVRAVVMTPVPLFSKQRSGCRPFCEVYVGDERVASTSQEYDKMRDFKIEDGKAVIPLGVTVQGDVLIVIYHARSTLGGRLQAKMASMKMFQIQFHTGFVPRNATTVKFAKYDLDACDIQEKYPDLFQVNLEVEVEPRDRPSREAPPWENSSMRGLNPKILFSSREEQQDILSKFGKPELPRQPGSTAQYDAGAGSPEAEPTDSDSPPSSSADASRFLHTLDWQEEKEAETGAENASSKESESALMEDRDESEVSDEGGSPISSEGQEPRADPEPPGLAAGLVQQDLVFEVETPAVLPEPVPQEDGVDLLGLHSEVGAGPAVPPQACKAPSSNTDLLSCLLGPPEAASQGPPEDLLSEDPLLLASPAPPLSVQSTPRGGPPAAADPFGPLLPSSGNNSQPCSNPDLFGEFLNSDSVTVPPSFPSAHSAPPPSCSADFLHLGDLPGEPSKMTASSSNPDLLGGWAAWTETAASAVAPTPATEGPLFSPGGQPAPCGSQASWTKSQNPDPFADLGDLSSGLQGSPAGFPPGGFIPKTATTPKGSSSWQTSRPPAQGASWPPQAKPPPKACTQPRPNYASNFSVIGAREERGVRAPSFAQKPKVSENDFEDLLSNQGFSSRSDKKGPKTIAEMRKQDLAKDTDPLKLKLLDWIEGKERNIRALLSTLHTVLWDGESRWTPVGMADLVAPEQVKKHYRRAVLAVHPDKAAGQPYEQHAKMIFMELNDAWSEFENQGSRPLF

GAK [2] = molecular target: T2, GAK (Homo sapiens, UniProt O14976); test: biochemical
T2 sequence (O14976 12-347 limits assumed): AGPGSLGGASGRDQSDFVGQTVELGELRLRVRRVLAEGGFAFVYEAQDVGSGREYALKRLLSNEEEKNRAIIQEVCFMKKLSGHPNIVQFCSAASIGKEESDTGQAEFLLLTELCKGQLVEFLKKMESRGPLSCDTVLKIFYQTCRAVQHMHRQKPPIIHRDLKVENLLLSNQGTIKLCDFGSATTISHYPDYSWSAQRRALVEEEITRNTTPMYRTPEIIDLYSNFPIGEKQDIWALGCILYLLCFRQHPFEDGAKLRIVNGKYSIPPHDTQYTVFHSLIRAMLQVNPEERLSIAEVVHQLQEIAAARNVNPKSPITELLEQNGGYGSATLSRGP

SLK [3] = molecular target: T3, SLK (Homo sapiens, UniProt Q9H2G2); test: biochemical
T3 sequence (Q9H2G2 34-292): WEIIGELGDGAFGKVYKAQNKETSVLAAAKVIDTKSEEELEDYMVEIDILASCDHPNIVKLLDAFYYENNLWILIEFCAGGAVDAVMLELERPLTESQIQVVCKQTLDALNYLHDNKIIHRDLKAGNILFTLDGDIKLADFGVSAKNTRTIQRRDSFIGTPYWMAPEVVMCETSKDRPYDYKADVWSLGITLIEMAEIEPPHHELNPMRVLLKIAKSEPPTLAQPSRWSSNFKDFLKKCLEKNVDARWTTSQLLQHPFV

STK10 [4] = molecular target: T4, STK10 (Homo sapiens, UniProt O94804); test: biochemical
T4 sequence (O94804 36-294 limits assumed): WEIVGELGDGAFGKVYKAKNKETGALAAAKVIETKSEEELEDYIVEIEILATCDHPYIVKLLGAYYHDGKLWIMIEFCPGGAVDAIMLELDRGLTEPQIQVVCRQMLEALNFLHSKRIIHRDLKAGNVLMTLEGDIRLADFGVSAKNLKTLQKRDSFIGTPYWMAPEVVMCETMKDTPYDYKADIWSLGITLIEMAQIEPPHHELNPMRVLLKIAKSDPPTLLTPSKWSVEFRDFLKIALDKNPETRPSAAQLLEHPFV

SLK [5] = molecular target: T3, SLK; test: biochemical; remark: listed apart in the source
[6] = molecular target: T1, full length GAK protein N-terminally fused with NanoLuc luciferase; test: cell-based; design: species or system HEK293T; remark: listed apart in the source
GAK [7] = molecular target: T2, GAK; test: biochemical; remark: listed apart in the source
STK10 [8] = molecular target: T4, STK10; test: biochemical; remark: listed apart in the source
SLK [9] = molecular target: T3, SLK; test: biochemical; remark: listed apart in the source
SLK [10] = molecular target: T3, SLK; test: biochemical; remark: listed apart in the source
STK10 [11] = molecular target: T4, STK10; test: biochemical; remark: listed apart in the source
GAK [12] = molecular target: T2, GAK; test: biochemical; remark: listed apart in the source
[13] = molecular target: T1, full length GAK protein N-terminally fused with NanoLuc luciferase; test: cell-based; design: species or system HEK293T; remark: listed apart in the source

Ki (SLK [10]) [µM]	Ki (STK10 [11]) [µM]	Ki (GAK [12]) [µM]	IC50 [13] [µM]	Structure (SMILES)	further results
–	–	–	–	C#Cc1cccc(Nc2ncnc3cc(C#N)ccc23)c1 [compound 67, 67]	IC50 [1]: > 5 µM; Ki (GAK [2]): 0.1 µM; Ki (SLK [3]): 0.26 µM
–	–	–	–	C#Cc1cccc(Nc2c(C#N)cnc3cc(OC)c(OC)cc23)c1 [compound 82]	Ki (STK10 [4]): 0.027 µM; Ki (SLK [5]): 0.018 µM
–	–	–	–	C#Cc1cccc(Nc2c(C#N)cnc3cc(Br)ccc23)c1 [compound 85, 85]	IC50 [6]: > 5 µM; Ki (GAK [7]): 0.027 µM; Ki (STK10 [8]): 0.13 µM; Ki (SLK [9]): 0.16 µM
> 55	> 55	0.023	4.4	Fc1cc(Nc2ccnc3ccc(Br)cc23)cc(F)c1F [compound 103, 103]	–
> 55	> 55	0.011	> 5	Fc1ccc(Nc2ccnc3ccc(Br)cc23)cc1F [compound 104, 104]	–
> 55	> 55	0.012	> 5	Fc1cc(F)cc(Nc2ccnc3ccc(Br)cc23)c1 [compound 105, 105]	–
> 55	> 55	0.12	> 5	Fc1ccc(Nc2ncnc3ccc(Br)cc23)cc1 [compound 109, 109]	–
> 55	> 55	0.019	1.9	Fc1cccc(Nc2ccnc3ccc(Br)cc23)c1 [compound 110, 110]	–
> 55	30	0.049	2.6	Fc1ccccc1Nc1ccnc2ccc(Br)cc12 [compound 111, 111]	–
> 55	> 55	0.072	> 5	Brc1cccc(Nc2ccnc3ccc(Br)cc23)c1 [compound 112, 112]	–
9.4	6	0.084	> 5	Brc1cccc(Nc2ncnc3ccc(Br)cc23)c1 [compound 113, 113]	–
